# The source made the active and inactive calls.
# Columns and labels:
# [1] = biological target: Heat shock protein HSP 90-alpha (Homo sapiens, UniProt P07900); test: Luminescence-based dose response biochemical high throughput screening assay for inhibitors of the Heat Shock Protein 90 (HSP90). [Related pubchem assays: 1831 (Summary AID.), 1846 (Confirmation screen.), 1789 (Primary screen.)]
# [2] = biological target: T1, Calpain-2 catalytic subunit (Sus scrofa, UniProt P43367); test: m-calpain protease blockers, concentration series – biochemical, fluorogenic peptide substrate, dose response (AID 1420); assay type: functional
# T1 sequence (P43367 whole entry): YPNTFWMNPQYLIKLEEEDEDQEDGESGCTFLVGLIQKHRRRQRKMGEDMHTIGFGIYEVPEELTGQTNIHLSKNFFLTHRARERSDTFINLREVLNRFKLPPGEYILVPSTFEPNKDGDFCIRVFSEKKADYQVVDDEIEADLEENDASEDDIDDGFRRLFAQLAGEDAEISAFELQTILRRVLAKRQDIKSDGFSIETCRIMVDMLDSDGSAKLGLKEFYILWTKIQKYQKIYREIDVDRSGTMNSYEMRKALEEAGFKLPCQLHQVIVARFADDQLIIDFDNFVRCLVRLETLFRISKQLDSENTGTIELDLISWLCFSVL
# [3] = test system: Vero; test: viability of Vero cells under compound – cytotoxicity control for flavivirus capping enzyme inhibitors (AID 588742); assay type: functional; conditions: Chlorocebus sabaeus
# [4] = viability loss in Vero cells – cytotoxicity control for Vif-APOBEC3G degradation inhibitor project, dose response (AID 1117358); assay type: functional; conditions: Vero
# [5] = viability loss in HeLa cells – cytotoxicity control for MgcRacGAP inhibitor project, dose response (AID 624300); assay type: functional
# [6] = viability loss in THP-1 monocytes – THP-1 cells, cytotoxicity control for Vif-APOBEC3G degradation inhibitor project, dose response (AID 1117359); assay type: functional; conditions: THP-1
# [7] = biological target: T2, Rac GTPase-activating protein 1 (Homo sapiens, UniProt Q9H0H5); test: blockers of MgcRacGAP-driven Rac1 GTP hydrolysis – biochemical, ADP Hunter fluorescence, primary and confirmatory, confirmation (AID 624330); assay type: functional
# T2 sequence (Q9H0H5 whole entry): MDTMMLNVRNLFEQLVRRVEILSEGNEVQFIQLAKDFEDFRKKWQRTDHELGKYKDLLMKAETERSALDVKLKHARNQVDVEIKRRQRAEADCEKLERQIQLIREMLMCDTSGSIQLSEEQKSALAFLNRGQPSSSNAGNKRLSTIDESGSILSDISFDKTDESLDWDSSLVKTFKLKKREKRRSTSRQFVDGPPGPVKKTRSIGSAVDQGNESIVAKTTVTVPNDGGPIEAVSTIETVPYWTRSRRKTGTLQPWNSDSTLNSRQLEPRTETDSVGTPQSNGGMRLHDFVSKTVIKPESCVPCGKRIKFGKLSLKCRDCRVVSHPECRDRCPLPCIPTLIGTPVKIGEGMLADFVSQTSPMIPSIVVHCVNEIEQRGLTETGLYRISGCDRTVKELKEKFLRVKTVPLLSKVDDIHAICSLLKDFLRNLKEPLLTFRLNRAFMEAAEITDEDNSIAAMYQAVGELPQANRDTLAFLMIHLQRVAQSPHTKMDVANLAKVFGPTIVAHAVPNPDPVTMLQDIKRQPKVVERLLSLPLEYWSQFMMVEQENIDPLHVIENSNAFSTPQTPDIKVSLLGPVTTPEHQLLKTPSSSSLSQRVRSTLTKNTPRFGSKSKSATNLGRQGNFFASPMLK
# [8] = biological target: Protein Tat (Human immunodeficiency virus type 1 group M subtype B (isolate HXB2)(HIV-1), UniProt P04608); assay type: functional;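 note: tat binding to TAR RNA read out by fluorescence polarization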
# [9] = biological target: X-box-binding protein 1 (Homo sapiens, UniProt P17861); assay type: functional, Cricetulus griseus;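 note: confirmatory dose-response counter-screen serving a CHOP assay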
# [10] = OVCAR8 cell viability loss – plate reader, dry powder samples, PAX8 project, dose response (AID 743197); assay type: functional, cell-based; conditions: OVCAR-8
# [11] = OVCAR-3 cell viability loss – plate reader, dry powder samples, PAX8 inhibitor project, dose response (AID 743044); assay type: functional, cell-based
# [12] = general cell-killing toxicity readout – plate reader, dry powder samples, cytotoxicity control for PAX8 inhibitor project, dose response (AID 743021); assay type: functional, cell-based
# [13] = toxicity to human hepatoma HepG2 cells – cell-based, cherry-picked samples, cytotoxicity control, dose response (AID 1159577); assay type: functional
# [14] = P. falciparum Dd2 growth inhibitors, dose response, SYBR Green, cherry-picked samples (AID 1159567); assay type: functional, cell-based
# [15] = reduced cellular PGC1a acetyl-lysine signal – cell-based, cherry-picked samples, dose response (AID 720514); assay type: functional;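 note: potency may reflect raised or lowered acetylation signal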
# [16] = toxicity toward immortalized ovarian surface epithelium – cell-based, plate reader, dry powder samples, cytotoxicity control for PAX8 inhibitor project, dose response (AID 743045); assay type: functional
# [17] = biological target: Paired box protein Pax-8 (Homo sapiens, UniProt Q06710); test: PAX8 transcriptional activity inhibition in RMG-I – RMG-I cells, luciferase, cherry-pick, dose response (AID 687027); assay type: functional, cell-based;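 note: luciferase reporter driven by Pax8 target thyroperoxidase promoter measured by SteadyGlo luminescence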
# [18] = cytotoxicity toward HT-29 cells – cell-based, CellTiter-Glo luminescence, IC50, dose response (AID 1117330); assay type: functional
# [19] = SNU-C1 cell viability reduction, dose response, CellTiter-Glo luminescence (AID 1117323); assay type: functional, cell-based
# [20] = cytotoxicity toward HCT116 cells – cell-based, CellTiter-Glo luminescence, IC50, dose response (AID 1117332); assay type: functional; conditions: HCT-116
# [21] = cytotoxicity toward Colo320 cells – cell-based, CellTiter-Glo luminescence, IC50, dose response (AID 1117334); assay type: functional; conditions: COLO 320
# [22] = CellTiter-Glo luminescence survival assay, SW480 colon tumor line, concentration-response curve, half-maximal inhibitory concentration (AID 1117338); assay type: functional
# [23] = Reduced DLD-1 viability, concentration-response, CellTiter-Glo luminescence (AID 1117352); assay type: functional
# [24] = RKO cell viability reduction, dose response, CellTiter-Glo luminescence (AID 1117322); assay type: functional
# [25] = A2780 cell killing – plate reader, dry powder samples, cytotoxicity control, dose response (AID 743046); assay type: functional, cell-based
# [26] = test system: BJ; test: BJ-TERT-LT-ST fibroblast viability loss – cell-based, RAS-independent, luminescence, dose response (AID 1935); assay type: functional; conditions: Homo sapiens;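 note: BJ fibroblasts immortalized with TERT plus LT and ST oncogenes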
# [27] = test system: BJ; test: BJ-TERT fibroblast viability loss – cell-based, RAS-independent, luminescence, dose response (AID 1933); assay type: functional; conditions: Homo sapiens
# [28] = DRD fibroblast viability loss – cell-based, non-viral oncogenic, luminescence, dose response (AID 1934); assay type: functional; conditions: Homo sapiens
# [29] = cells; conditions: HEK293
# [30] = cells; conditions: A549
# [31] = test system: BJ; test: cells; assay type: functional, cell-based; conditions: Homo sapiens
# [32] = Potency on glucagon-like peptide 1 release, dose-response in NCI-H716 cell line, half maximal inhibitory concentration (AID 1117344); assay type: functional, cell-based
# [33] = glucagon-like peptide-1 release potency in STC-1, concentration-response, half-maximal inhibitory concentration in the STC-1 line (AID 1117345); assay type: functional, cell-based
# [34] = HCT116 cell viability decrease, GSK3B pretreatment – CellTiter-Glo, IC50, dose response (AID 1117339); assay type: functional; conditions: HCT-116
# [35] = HEK293 Cytotoxicity Assay Measured in Cell-Based System Using Plate Reader - 7071-01_Inhibitor_Dose_CherryPick_Activity_Set2.; assay type: functional
# [36] = test system: HEK293; test: viability loss in HEK293T cells – cell-based, ATP luminescence, cherry-pick samples, cytotoxicity control, dose response (AID 687005); assay type: functional; conditions: Homo sapiens;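 note: cells exposed to compound for 48 hours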
# Chain of Paired box protein Pax-8 (Q06710 whole entry): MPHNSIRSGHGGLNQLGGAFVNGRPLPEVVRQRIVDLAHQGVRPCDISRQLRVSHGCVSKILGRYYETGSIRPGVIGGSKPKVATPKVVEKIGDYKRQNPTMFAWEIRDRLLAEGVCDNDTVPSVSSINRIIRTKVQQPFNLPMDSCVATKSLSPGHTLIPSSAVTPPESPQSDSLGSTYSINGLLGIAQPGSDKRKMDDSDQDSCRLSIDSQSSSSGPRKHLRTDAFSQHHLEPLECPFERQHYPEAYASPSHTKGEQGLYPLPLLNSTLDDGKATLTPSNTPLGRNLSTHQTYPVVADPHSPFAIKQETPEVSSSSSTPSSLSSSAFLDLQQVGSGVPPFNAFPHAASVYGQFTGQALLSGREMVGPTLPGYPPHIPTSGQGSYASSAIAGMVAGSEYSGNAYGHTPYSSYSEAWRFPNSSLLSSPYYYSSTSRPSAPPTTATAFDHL
# Chain of X-box-binding protein 1 (P17861 whole entry): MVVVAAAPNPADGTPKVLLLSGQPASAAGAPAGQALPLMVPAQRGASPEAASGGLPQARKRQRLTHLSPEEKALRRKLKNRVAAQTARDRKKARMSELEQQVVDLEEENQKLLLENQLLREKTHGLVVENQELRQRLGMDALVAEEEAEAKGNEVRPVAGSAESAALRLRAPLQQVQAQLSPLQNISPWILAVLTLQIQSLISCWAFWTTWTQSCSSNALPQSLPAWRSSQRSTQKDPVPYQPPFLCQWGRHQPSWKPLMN
# Chain of Protein Tat (P04608 whole entry): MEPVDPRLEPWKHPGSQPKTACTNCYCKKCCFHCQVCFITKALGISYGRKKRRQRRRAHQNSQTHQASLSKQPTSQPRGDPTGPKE
smiles,measurement,setting,value
Cc1cc(C(=O)Cn2nc(C(=O)O)c3ccccc3c2=O)c(C)n1CC(F)(F)F,IC50,[1],> 60 µM (not active)
CCOc1cccc(CNc2ccc(O)cc2)c1OCc1ccc(Cl)cc1Cl,IC50,[2],8.34 µM (not active)
same,CC50,[3],36.4 µM (active)
same,CC50,[4],> 40 µM (active)
same,CC50,[5],85.7 µM (active)
same,CC50,[6],30.4 µM (active)
same,IC50,[7],118 µM (active)
same,IC50,[8],> 100 µM (inconclusive)
same,Absolute IC50 (XBP1),[9],10 µM
Cc1ccc(-c2ccc([C@@H]3[C@@H]4CN(C(=O)Nc5ccc(C(F)(F)F)cc5)C[C@H]3N4)cc2)cc1,AC50,[10],22.8 µM (active)
same,AC50,[11],17 µM (active)
same,AC50,[12],14 µM (active)
same,AC50,[13],2.72 µM (active)
same,AC50,[14],2.33 µM (active)
same,AC50,[15],6.73 µM (active)
same,AC50,[16],11.3 µM (active)
same,AC50,[17],3.06 µM (active)
CCn1cc(C(=O)O)c(=O)c2cnc(N3CCNCC3)nc21 [PIPEMIDIC ACID],IC50,[18],> 20 µM (inactive)
same,IC50,[19],> 20 µM (inactive)
same,IC50,[20],> 20 µM (inactive)
same,IC50,[21],> 20 µM (inactive)
same,IC50,[22],> 20 µM (inactive)
same,IC50,[23],> 20 µM (inactive)
same,IC50,[24],> 20 µM (inactive)
C[C@@H]1CN([C@@H](C)CO)C(=O)c2cc(NC(=O)Nc3ccc(C(F)(F)F)cc3)ccc2O[C@@H](C)CCCCO[C@@H]1CN(C)Cc1ccc2c(c1)OCO2,AC50,[10],57.3 µM (active)
same,AC50,[17],5.64 µM (active)
same,AC50,[25],56.1 µM (active)
CN(C)C(=O)CSc1nc2cc(C(=O)c3ccccc3)ccc2[nH]1,EC50,[26],> 150 µM (inconclusive)
same,EC50,[27],> 150 µM (not active)
same,EC50,[28],> 150 µM (not active)
same,AC50,[29],29.9 µM (active)
same,AC50,[30],35.9 µM (active)
same,EC50,[31],14.3 µM (inconclusive)
Oc1ccc(Cl)cc1Cc1ccccc1 [CLOROPHENE],IC50,[18],> 20 µM (inactive)
same,IC50,[32],33.8 µM (inactive)
same,IC50,[33],7.62 µM (inactive)
same,IC50,[20],> 20 µM (inactive)
same,IC50,[21],13 µM (inactive)
same,IC50,[34],> 6.67 µM (inactive)
same,IC50,[22],> 20 µM (inactive)
same,IC50,[24],> 20 µM (inactive)
CN1[C@@H]2c3ccc(-c4cccnc4)c(=O)n3C[C@@H]2[C@@H](CO)[C@@H]1C(=O)N1CCc2ccccc2C1,AC50,[35],> 52 µM (inactive)
same,AC50,[36],> 52 µM (inactive)
